Paper PMC7663272, “Discovery of Tricyclic Pyranochromenone as Novel Bruton’s Tyrosine Kinase Inhibitors with In Vivo Antirheumatic Activity” (International Journal of Molecular Sciences, 2020)
Where two headings read alike, the source gives them in different places.

What was measured:
[1] = biological target: T1, BTK-wt (Homo sapiens, UniProt Q06187); assay: HotSpot kinase enzymatic assay, BTK-wt; type: biochemical
T1 construct: purchased Reaction Biology Corporation
Procedure: (§1) Kinase enzymatic assays for BTK, BMX, TXK, TEC, ITK, EGFR, ERBB2, ERBB4, and JAK3 were performed at Reaction Biology Corporation (www.reactionbiology.com, Malvern, PA, USA) using the HotSpot assay platform. Briefly, specific kinase/substrate pairs and the required cofactors were prepared in a reaction buffer comprising 20 mM HEPES (pH 7.5), 10 mM MgCl2, 1 mM EGTA, 0.02% Brij35, 0.02 mg/mL BSA, 0.1 mM Na3VO4, 2 mM DTT, and 1% DMSO. The compounds were added to the reaction mixture and allowed to incubate. Approximately 20 min later, a mixture of ATP (Sigma-Aldrich, St. Louis, MO, USA) and ^33P ATP (PerkinElmer, Waltham, MA, USA) was added to the reaction mixture at a final concentration of 10 μM. The reactions were performed at room temperature for 120 min; subsequently, the reactions were spotted onto P81 ion exchange filter papers (Whatman Inc., Maidstone, UK). […] GraphPad Prism software was used to obtain the IC50 values and perform curve fitting.

[2] = biological target: T2, BTK-C481S (Homo sapiens, UniProt Q06187, C481S); assay: HotSpot kinase enzymatic assay, mutant BTK; type: biochemical; settings: vs negative control (DMSO), mean of two separate experiments
T2 construct: purchased Reaction Biology Corporation
Source text: To confirm the role of the electrophilic warhead groups, the acryloyl group of compound 8 was replaced with methylacryloyl (11) and propionyl (12) groups, which are less electrophilic or lack an electrophilic feature. […] The significant difference in the inhibitory activity of compounds 8 and 12 could explain the critical role of the acryloyl moiety in potentiating the BTK inhibitory activity of compound 8. […] It was also confirmed by comparison of the inhibitory activity of the representative compounds (8–10) with electrophilic warheads against wild-type BTK (BTK-wt) and mutant BTK (BTK-C481S).
as §1, with “UK). Any unbound phosphate was removed by thoroughly washing the filter papers with 0.75% phosphoric acid.” for “UK).”

[3] = biological target: T3, CYP2C9 (Homo sapiens, UniProt P11712); assay: P450-Glo CYP inhibition assay, CYP2C9; type: in vitro ADME
T3 construct: purchased Promega V9790
Procedure: (§2) The potential for CYP450 inhibition (CYP1A2, 2C9, 2C19, 2D6, and […]) was assessed using Promega P450-Glo^TM CYP450 assay systems. Luciferin-ME served as the substrate for CYP1A2, and the inhibitor α-naphthoflavone was used as a positive control. Luciferin-H was used as the substrate for CYP2C9, and the inhibitor sulfaphenazole was used as a positive control. Luciferin-H EGE was selected as the substrate for CYP2C19, whereas the inhibitor amitriptyline served as a positive control. Luciferin-ME EGE was used as the substrate for CYP2D6, whereas the inhibitor quinidine served as a positive control. Luciferin-BE was used as the substrate for CYP3A4, whereas the inhibitor ketoconazole was used as a positive control. The assays were performed using the excitation and emission wavelengths recommended by the manufacturer. Briefly, a CYP enzyme and a P450-Glo™ substrate were combined in potassium phosphate (0.1 M KPO4) buffer, with or without a test compound of interest, and […]. The reaction was initiated by adding two volumes of 2 times concentrated NADPH regeneration system. […] Luminescence was subsequently measured using a Tecan Infinite M1000 PRO microplate reader (Tecan Group Ltd., Switzerland). The percent inhibition was calculated relative to that of the positive control at a fixed concentration. […]

[4] = biological target: T4, CYP3A4 (Homo sapiens, UniProt P08684); assay: P450-Glo CYP inhibition assay, CYP3A4; type: in vitro ADME
T4 construct: purchased Promega V9920
Procedure: as §2

[5] = % inhibition of human CYP isozymes at 10 μM

T1 sequence (Q06187 whole entry): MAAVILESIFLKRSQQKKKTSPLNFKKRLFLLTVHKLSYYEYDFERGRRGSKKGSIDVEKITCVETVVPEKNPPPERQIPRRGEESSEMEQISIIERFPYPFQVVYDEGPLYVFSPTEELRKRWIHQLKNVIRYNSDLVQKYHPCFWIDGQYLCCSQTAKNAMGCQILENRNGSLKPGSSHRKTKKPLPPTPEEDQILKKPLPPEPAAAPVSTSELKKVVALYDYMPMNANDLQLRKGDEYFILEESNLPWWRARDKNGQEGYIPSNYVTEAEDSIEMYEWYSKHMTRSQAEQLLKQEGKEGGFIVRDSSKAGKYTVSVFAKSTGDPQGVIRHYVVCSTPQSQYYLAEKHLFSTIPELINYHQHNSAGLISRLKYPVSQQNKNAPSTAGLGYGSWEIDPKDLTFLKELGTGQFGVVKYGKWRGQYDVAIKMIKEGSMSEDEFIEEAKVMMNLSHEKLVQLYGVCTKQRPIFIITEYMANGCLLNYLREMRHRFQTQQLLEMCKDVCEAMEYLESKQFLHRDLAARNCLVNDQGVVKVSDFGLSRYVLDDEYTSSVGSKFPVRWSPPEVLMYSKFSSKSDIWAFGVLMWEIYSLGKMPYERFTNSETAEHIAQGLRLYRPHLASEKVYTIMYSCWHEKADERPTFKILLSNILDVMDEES
T3 sequence (P11712 whole entry): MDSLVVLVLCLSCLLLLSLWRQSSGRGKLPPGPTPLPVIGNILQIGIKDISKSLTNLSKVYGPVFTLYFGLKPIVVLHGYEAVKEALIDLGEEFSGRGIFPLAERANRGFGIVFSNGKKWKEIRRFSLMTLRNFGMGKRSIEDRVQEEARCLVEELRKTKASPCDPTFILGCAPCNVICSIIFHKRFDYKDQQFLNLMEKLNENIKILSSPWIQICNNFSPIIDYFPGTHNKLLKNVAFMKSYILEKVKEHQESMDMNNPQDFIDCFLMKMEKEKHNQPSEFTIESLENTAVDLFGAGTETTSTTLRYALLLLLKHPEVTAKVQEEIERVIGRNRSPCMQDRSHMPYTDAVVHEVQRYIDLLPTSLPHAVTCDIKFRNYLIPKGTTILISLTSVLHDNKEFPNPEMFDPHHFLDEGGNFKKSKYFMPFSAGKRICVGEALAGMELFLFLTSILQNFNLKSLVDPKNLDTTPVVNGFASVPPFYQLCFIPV
T4 sequence (P08684 whole entry): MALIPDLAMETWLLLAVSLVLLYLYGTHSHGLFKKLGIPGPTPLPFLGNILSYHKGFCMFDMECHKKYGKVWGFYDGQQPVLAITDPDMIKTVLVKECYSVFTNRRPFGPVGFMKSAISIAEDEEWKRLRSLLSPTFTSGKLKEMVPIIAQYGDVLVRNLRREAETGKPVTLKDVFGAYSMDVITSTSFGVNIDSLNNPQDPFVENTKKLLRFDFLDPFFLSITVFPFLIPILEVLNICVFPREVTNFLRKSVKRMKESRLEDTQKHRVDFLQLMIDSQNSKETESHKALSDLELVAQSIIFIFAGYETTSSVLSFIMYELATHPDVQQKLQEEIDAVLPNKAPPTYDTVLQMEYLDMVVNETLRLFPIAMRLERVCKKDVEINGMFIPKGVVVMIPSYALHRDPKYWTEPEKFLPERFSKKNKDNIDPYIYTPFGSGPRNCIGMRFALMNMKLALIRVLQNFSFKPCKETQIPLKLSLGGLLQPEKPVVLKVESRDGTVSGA
T2 sequence (Q06187 whole entry C481S): as the sequence (Q06187 whole entry) above, with C481S counted along it

Compound: C=CC(=O)O[C@H]1Cc2cc3ccc(=O)oc3cc2OC1(C)C [Compound 8, (7S)-(+)-Acrylic acid, 8,8-dimethyl-2-oxo-6,7-dihydro-2H,8H-pyrano [3,2-g]chromen-7-yl ester]
- inhibition at 10 µM ([1]; vs negative control (DMSO), mean of two separate experiments, NA = not active at 10 µM, read-out: % Inhibition (10 µM) BTK-wt): 98.2%
- IC50 ([1]; HotSpot assay, 10 μM ATP, GraphPad Prism): 800 nM
- inhibition at 10 µM ([1]; Table 2 selectivity profile, mean of two experiments, read-out: % Inhibition at 10 µM, BTK): 98.2%
- kinase selectivity (in words) ([1]; over EGFR and TEC family kinases, JAK3): selective for BTK over ITK, EGFR, ERBB4, and JAK3
- inhibition at 10 µM [2]: 9.7%
- CYP2C9 inhibition (in words) [3]: moderately inhibited
- CYP inhibition 2C9 [3, 5]: 66.1%
- CYP3A4 inhibition (in words) [4]: rarely inhibited
- CYP inhibition 3A4 [4, 5]: <1%
